This is an account of results in patent US5462948A, “Treatment of addiction to drugs and substances of abuse” (H. Lundbeck A/S, priority 1991, dated 1995).

Data set [1] is described as follows: Catalepsy test in rats (s.c., vertical wire mesh). The settings on record: rat, maximum catalepsy within the first 6 hours. The procedure:
Test compound is given s.c. in different doses. The rat (170-240 g) is placed on a vertical wire mesh (mesh diameter 12 mm). The rat is considered cataleptic if it remains immobile for more than 15 sec. The maximum number of rats showing catalepsy within the first 6 hours is recorded for each dose group. The results are recorded in fractions and an ED50 value is calculated by means of log-probit analysis. The results are shown in Table 1 (cf. Our Internat. Patent Application Publ. No. WO 92/00070).

Data set [2] in a line: Inhibition of diazepam withdrawal symptoms in mice (black/white test box). Format: in vivo, mice (male BKW). To be noted: 0.1 mg/kg i.p.; FIG. 1. How it is done:
(§1) The tests are tests for the effect of a substance on the abstinence symptoms induced by withdrawal of a drug of a substance of abuse in mice measured as the effect on some specific behavioral changes following to withdrawal of the drug or substance of abuse.
(§2) The test was conducted using an open-top experimental box (45*27*27 cm) two fifths of which was partitioned from the rest, painted black and illuminated with a dim red light (1×60 W, zero Lux). The remainder of the box was painted white and brightly illuminated (60 W, 400 Lux) with a white light source. The light sources were located 17 cm above the box and the base of the box was lined into 9 cm squares. Access between the two compartments was by means of a 7.5×7.5 cm opening located in floor level at the centre of the partition.
(§3) The mice were male BKW mice having weight of 25-30 g, housed in groups of 10 and given free acces to drink and food and kept on a dark/light cycle of 12 hours.
Diazepam (10 mg/kg) was given i.p. twice a day for 7 days and then withdrawn. […]
The test was carried out by taking the mice to a dimly illuminated room and then after 1 hour adaption to the new environment placing them in the centre of the white section of the test box. […] The following behavioural changes were measured: […]

Data set [3] can be described thus: Inhibition of nicotine withdrawal symptoms in mice (black/white test box). Format: in vivo, mice (male BKW). To be noted: 0.1 mg/kg i.p.; FIG. 2. The procedure:
as §1, §2, §3
The test was carried out by taking the mice to a dimly illuminated room and then after 1 hour adaption to the new environment placing them in the centre of the white section of the test box. Behavioural changes were assed via remote video recording. The following behavioural changes were measured:
a) The time spent in the white and black section;
b) the number of explorative rearings in both the white and black section; […]

For the molecule `O=C1NCCN1CCN1CC=C(c2cn(-c3ccc(F)cc3)c3ccc(C(F)(F)F)cc23)CC1` [Comp. A, 1-(4-Fluorophenyl)-3-[1-[2-(2-imidazolidinon-1-yl)ethyl]-1,2,3,6-tetrahydropyridin-4-yl]-5-trifluoromethyl-1H-indole, reference compound], in data set [1], the “Cataleptic activity ED50 (s.c.)” value stood at 0.49 µmol/kg.

Regarding `O=C1NCCN1CCN1CC=C(c2cn(-c3ccc(F)cc3)c3ccc(Cl)cc23)CC1` [Comp. B, 5-Chloro-1-(4-fluorophenyl)-3-[1-[2-(2-imidazolidinon-1-yl)ethyl]-1,2,3,6-tetrahydro-4-pyridyl]-1H-indole, reference compound], the “Cataleptic activity ED50 (s.c.)” value in data set [1] was 2.2 µmol/kg.

Consider `CN1CCN(CCN2CCC(c3cn(-c4ccc(F)cc4)c4ccc(Cl)cc34)CC2)C1=O` [Comp. No 3, 5-chloro-1-(4-fluorophenyl)-3-[1-[2-(3-methyl-2-imidazolidinon-1-yl)ethyl]-4-piperidyl]-1H-indole], for which, in data set [1], the “Cataleptic activity ED50 (s.c.)” value is 31 µmol/kg.

On to `O=C1CCCN1CCN1CCC(c2cn(-c3ccc(F)cc3)c3ccc(Cl)cc23)CC1` [Comp. No 4, 5-chloro-1-(4-fluorophenyl)-3-[1-[2-(2-pyrrolidinon-1-yl)ethyl]-4-piperidyl]-1H-indole], for which the “Cataleptic activity ED50 (s.c.)” value in data set [1] worked out at 23 µmol/kg.

In the case of `O=C1NCCN1CCN1CCC(c2cn(-c3ccc(F)cc3)c3ccc(Cl)cc23)CC1` [Sertindole, 5-chloro-1-(4-fluorophenyl)-3-[1-[2-(2-imidazolidinon-1-yl)ethyl]-4-piperidyl]-1H-indole], in data set [2], the “Inhibiting effect on the withdrawal behavioural changes, diazepam” value is “statistically significant inhibiting effect” and the “Relieving effect on the symptoms following withdrawal of diazepam” value is “marked relieving effect”. In data set [3], the “Inhibiting effect on the withdrawal behavioural changes, nicotine” value is “statistically significant inhibiting effect” and the “Relieving effect on the symptoms following withdrawal of nicotine” value was “marked relieving effect”.
